For assay [1], the target named is T1, CCK-1 receptor (Homo sapiens, UniProt P32238).
T1 construct: expressed in transfected cells; host or cells: CHO-K1
T1 sequence (P32238 1-428): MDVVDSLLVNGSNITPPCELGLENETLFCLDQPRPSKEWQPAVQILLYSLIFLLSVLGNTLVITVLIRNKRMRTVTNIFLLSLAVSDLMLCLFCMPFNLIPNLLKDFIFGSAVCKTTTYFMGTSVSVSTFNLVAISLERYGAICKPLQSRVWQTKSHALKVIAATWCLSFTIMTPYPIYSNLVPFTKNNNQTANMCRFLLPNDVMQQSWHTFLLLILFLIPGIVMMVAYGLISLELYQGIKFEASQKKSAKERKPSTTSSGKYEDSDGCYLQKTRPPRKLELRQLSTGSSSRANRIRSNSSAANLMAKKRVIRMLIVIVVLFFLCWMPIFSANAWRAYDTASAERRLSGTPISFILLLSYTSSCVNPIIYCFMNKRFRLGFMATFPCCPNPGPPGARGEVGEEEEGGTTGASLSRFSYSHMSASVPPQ
Nature of the assay: CCK1 binding assay ([125I]-BH-CCK-8S displacement, CHO-K1 membranes). The settings on record: membranes of CHO-K1 cells stably transfected with the CCK-1 receptor, 20 pM [125I]-BH-CCK-8S, 0.3 μM PD-134,308 present, 60 min at 21±3° C.; for Ki: read-out: CCK1 pKi (converted). A digest of the protocol:
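Membranes from CHO-K1 cells stably expressing CCK-1 incubated 1 h at 21±3° C with 20 pM [125I]-BH-CCK-8S in HEPES buffer pH 7.2 containing 0.3 μM PD-134,308 to block CCK-2. Bound radioactivity read by gamma counting after filtration. pKi derived via Cheng-Prusoff, with specific binding defined using 2-NAP.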

Assay [2] deals with T2, CCK2 receptor (Homo sapiens, UniProt P32239).
T2 construct: analyzed for ZFP expression as well as CCK2R induction upon addition of doxycycline to the culture medium; endogenous in cells
T2 sequence (P32239 1-447): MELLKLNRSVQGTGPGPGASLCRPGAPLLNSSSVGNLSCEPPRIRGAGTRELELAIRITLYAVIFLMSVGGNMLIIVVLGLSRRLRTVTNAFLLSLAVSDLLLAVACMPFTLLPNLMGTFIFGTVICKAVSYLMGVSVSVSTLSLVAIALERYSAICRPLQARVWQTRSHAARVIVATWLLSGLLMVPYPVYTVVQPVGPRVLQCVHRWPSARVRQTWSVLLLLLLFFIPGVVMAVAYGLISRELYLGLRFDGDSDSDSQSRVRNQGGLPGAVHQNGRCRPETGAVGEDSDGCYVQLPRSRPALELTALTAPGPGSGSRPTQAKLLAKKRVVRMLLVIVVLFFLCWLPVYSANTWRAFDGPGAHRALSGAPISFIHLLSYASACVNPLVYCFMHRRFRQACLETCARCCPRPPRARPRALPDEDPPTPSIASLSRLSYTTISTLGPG
Nature of the assay: CCK2 binding assay ([125I]-BH-CCK-8S displacement, HEKZFP membranes). The settings on record: membranes of doxycycline-induced HEKZFP cells, 20 pM [125I]-BH-CCK-8S, 60 min at 21±3° C.; for Ki: read-out: CCK2 pKi (converted).

For `O=C(N[C@H](Cc1ccc(Cl)cc1Cl)C(=O)O)c1ccc(Cl)cc1NS(=O)(=O)c1c(F)cccc1F` [Example 46, 2-[4-Chloro-2-(2,6-difluoro-benzenesulfonylamino)-benzoylamino]-3-(2,4-dichloro-phenyl)-propionic acid], the Ki is 1580 nM in assay [1] and 63.1 nM in assay [2].

In the case of `CC(CNC(=O)c1ccc(I)cc1NS(=O)(=O)c1c(F)cccc1F)c1ccc(Cl)cc1Cl` (stereo not drawn) [Example 47, N-[2-(2,4-Dichloro-phenyl)-propyl]-2-(2,6-difluoro-benzenesulfonylamino)-4-iodo-benzamide], the Ki in assay [1] is 100 nM; in assay [2], 5010 nM.

Regarding `CC(CNC(=O)c1ccc(I)cc1NS(=O)(=O)c1c(F)cccc1F)c1ccc([N+](=O)[O-])cc1` (stereo not drawn) [Example 48, 2-(2,6-Difluoro-benzenesulfonylamino)-4-iodo-N-[2-(4-nitro-phenyl)-propyl]-benzamide], the Ki was 50.1 nM in assay [1] and 2000 nM in assay [2].

In the case of `C[C@@H](NC(=O)c1ccc(Cl)cc1NS(=O)(=O)c1cccc2nsnc12)[C@@H](O)c1ccccc1` [Example 49, 2-(Benzo[1,2,5]thiadiazole-4-sulfonylamino)-4-chloro-N-((2S,1R)-2-hydroxy-1-methyl-2-phenyl-ethyl)-benzamide], the Ki in assay [1] was 200 nM; in assay [2], 2000 nM.

With `O=C(NC1Cc2ccccc2C1)c1ccc(Cl)cc1NS(=O)(=O)c1cccc2nsnc12` [Example 50, 2-(Benzo[1,2,5]thiadiazole-4-sulfonylamino)-4-chloro-N-indan-2-yl-benzamide], the Ki was 631 nM in assay [1] and 6310 nM in assay [2].

On to `C[C@@H](NC(=O)c1ccc(Cl)cc1NS(=O)(=O)c1cccc2nsnc12)[C@@H](O)c1ccc(Cl)cc1` [Example 55, 2-(Benzo[1,2,5]thiadiazole-4-sulfonylamino)-4-chloro-N-[(1R,2S)-2-(4-chloro-phenyl)-2-hydroxy-1-methyl-ethyl]-benzamide], for which the Ki in assay [1] is 39.8 nM; in assay [2], 1000 nM.

Regarding `C[C@H](c1ccc(Cl)c(Cl)c1)[C@H](NC(=O)c1ccc(Cl)cc1NS(=O)(=O)c1cccc2nsnc12)C(=O)O` [Example 56, (2S,3R)-2-[2-(Benzo[1,2,5]thiadiazole-4-sulfonylamino)-4-chloro-benzoylamino]-3-(3,4-dichloro-phenyl)-butyric acid], the “CCK1 pKi” value in assay [1] is listed as 6.3. The “CCK2 pKi” value in assay [2] is recorded as 6.8.

In the case of `O=C(N[C@H](Cc1ccc(Cl)c(Cl)c1)C(=O)O)c1ccc(I)cc1NS(=O)(=O)c1cccc2nccnc12` [Example 60, (R)-3-(3,4-Dichloro-phenyl)-2-[4-iodo-2-(quinoxaline-5-sulfonylamino)-benzoylamino]-propionic acid], the Ki in assay [1] was 79.4 nM; in assay [2], 398 nM.

Consider `O=C(N[C@H](Cc1ccc(Cl)cc1)C(=O)O)c1cc(Cl)ccc1NS(=O)(=O)c1cccc2nsnc12` [Example 62, (R)-2-[2-(Benzo[1,2,5]thiadiazole-4-sulfonylamino)-5-chloro-benzoylamino]-3-(4-chloro-phenyl)-propionic acid], for which the Ki is 316 nM in assay [1] and 3160 nM in assay [2].

Regarding `O=C(O)C[C@H](Cc1ccc(Cl)c(Cl)c1)NC(=O)c1ccc(Cl)cc1NS(=O)(=O)c1cccc2nccnc12` [Example 64, (S)-3-[4-Chloro-2-(quinoxaline-5-sulfonylamino)-benzoylamino]-4-(3,4-dichloro-phenyl)-butyric acid], the Ki in assay [1] is 1580 nM; in assay [2], 100 nM.

As for `COC(=O)[C@H](Cc1csc2ccccc12)NC(=O)c1ccc(Cl)cc1NS(=O)(=O)c1cccc2nccnc12` [Example 65, (S)-3-Benzo[b]thiophen-3-yl-2-[4-chloro-2-(quinoxaline-5-sulfonylamino)-benzoylamino]-propionic acid methyl ester], the figures for the Ki in assay [1] and in assay [2] were 316 nM and 794 nM, respectively.

As to `O=C(N[C@@H](Cc1csc2ccccc12)C(=O)O)c1ccc(Cl)cc1NS(=O)(=O)c1cccc2nccnc12` [Example 66, (S)-3-Benzo[b]thiophen-3-yl-2-[4-chloro-2-(quinoxaline-5-sulfonylamino)-benzoylamino]-propionic acid], the results for the Ki in assay [1] and in assay [2] were 2000 nM and 501 nM, respectively.

On to `COC(=O)[C@H](Cc1ccc(Cl)cc1)NC(=O)c1cc(Cl)c(Cl)cc1NS(=O)(=O)c1cccc2nsnc12` [Example 67, (S)-2-[2-(Benzo[1,2,5]thiadiazole-4-sulfonylamino)-4,5-dichloro-benzoylamino]-3-(4-chloro-phenyl)-propionic acid methyl ester], for which the values for the Ki in assay [1] and in assay [2] were 200 nM and 251 nM, respectively.

As for `O=C(N[C@@H](Cc1ccc(Cl)cc1)C(=O)O)c1cc(Cl)c(Cl)cc1NS(=O)(=O)c1cccc2nsnc12` [Example 68, (S)-2-[2-(Benzo[1,2,5]thiadiazole-4-sulfonylamino)-4,5-dichloro-benzoylamino]-3-(4-chloro-phenyl)-propionic acid], the Ki in assay [1] is 316 nM; in assay [2], 31.6 nM.

With `COC(=O)[C@@H](Cc1ccc(Cl)cc1)NC(=O)c1ccc(Cl)cc1NS(=O)(=O)c1ccc(F)cc1F` [Example 69, (R)-2-[4-Chloro-2-(2,4-difluoro-benzenesulfonylamino)-benzoylamino]-3-(4-chloro-phenyl)-propionic acid methyl ester], the Ki in assay [1] is 63.1 nM; in assay [2], 7940 nM.

On to `O=C(NCCc1ccc(Cl)cc1Cl)c1ccc(Cl)cc1NS(=O)(=O)c1cccc2nsnc12` [Example 70, 2-(Benzo[1,2,5]thiadiazole-4-sulfonylamino)-4-chloro-N-[2-(2,4-dichloro-phenyl)-ethyl]-benzamide], for which the Ki in assay [1] was 200 nM; in assay [2] it was 6310 nM.

As to `COC(=O)[C@H](Cc1ccc(Cl)cc1)NC(=O)c1ccc(Cl)cc1NS(=O)(=O)c1ccc(F)cc1F` [Example 71, (S)-2-[4-Chloro-2-(2,4-difluoro-benzenesulfonylamino)-benzoylamino]-3-(4-chloro-phenyl)-propionic acid methyl ester], the Ki in assay [1] was 126 nM; in assay [2], 2510 nM.

With `CC(CNC(=O)c1ccc(I)cc1NS(=O)(=O)c1cccc2nsnc12)c1ccc(Cl)cc1` (stereo not drawn) [Example 72, 2-(Benzo[1,2,5]thiadiazole-4-sulfonylamino)-N-[2-(4-chloro-phenyl)-propyl]-4-iodo-benzamide], the Ki in assay [1] is 79.4 nM; in assay [2] it was 501 nM.

As for `C[C@H](NC(=O)c1ccc(Cl)cc1NS(=O)(=O)c1cccc2nsnc12)C(O)(c1ccccc1)c1ccccc1` [Example 74, (S)-2-(Benzo[1,2,5]thiadiazole-4-sulfonylamino)-4-chloro-N-(2-hydroxy-1-methyl-2,2-diphenyl-ethyl)-benzamide], the Ki in assay [1] is 316 nM; in assay [2] it was 7940 nM.

For `O=C(NCCc1ccc(Cl)cc1Cl)c1ccccc1NS(=O)(=O)c1cccc2nsnc12` [Example 75, 2-(Benzo[1,2,5]thiadiazole-4-sulfonylamino)-N-[2-(2,4-dichloro-phenyl)-ethyl]-benzamide], the values for the Ki in assay [1] and in assay [2] were 1000 nM and 3980 nM, respectively.

Consider `O=C(N[C@@H](Cc1ccc(F)cc1)C(=O)O)c1ccc(Cl)cc1NS(=O)(=O)c1cccc2nsnc12` [Example 76, (S)-2-[2-(Benzo[1,2,5]thiadiazole-4-sulfonylamino)-4-chloro-benzoylamino]-3-(4-fluoro-phenyl)-propionic acid], for which the Ki in assay [1] is 3160 nM; in assay [2], 39.8 nM.

The values are drawn from US7855292B2, “Sulfonamide compounds” (Janssen Pharmaceutica NV, priority 2004, dated 2010).
